Results published in patent US7211576B2, “Diaminothiazoles” (Hoffmann-La Roche Inc., priority 2004, dated 2007).
pIC50: −log10 of the molar value.

Tests used:
[1] = molecular target: human cyclin D1-CDK4 (Homo sapiens, UniProt P11802); assay: FlashPlate kinase assay, cyclin D1-CDK4; type: biochemical; details: Rb protein substrate, 1 μM ATP, 33P-ATP, 30 minutes room temperature; read-out: CDK4 IC50
Method: To determine inhibition of Cdk4, Cdk2 and Cdk1 activity, kinase assays were conducted using FlashPlate™ assays (NEN™-Life Science Products). FlashPlate assays were performed using recombinant human cyclin B-CDK1, human cyclin E-CDK2 or human cyclin D1-CDK4 complexes. GST-cyclinE (GST-cycE), CDK2, GST-cyclinB (GST-cycB), CDK1, GST-CDK4 and cyclin D1 (cycD1) cDNA clones in baculovirus vectors were provided by Dr. W. Harper at the Baylor College of Medicine, Houston, Tex.
(§1) The expression of the 62Kd protein was under the control of an IPTG inducible promoter in an M15 E. coli strain. Cells were lysed by sonication and purification was carried out by binding lysates at pH 8.0 to a Ni-chelated agarose column pretreated with 1 mM imidazole. The resin was then washed several times with incrementally decreasing pH buffers to pH 6.0, and eluted with 500 mM imidazole. Eluted protein was dialysed against 20 mM HEPES pH 7.5, 30% glycerol, 200 mM NaCl, and 1 mM DTT. Purified Rb fusion protein stocks were quantitated for protein concentration, aliquoted, and stored at −70° C.
(§2) For all three kinase assays reported herein, 96-well FlashPlates were coated with Rb protein at 10 μg/ml, using 100 μl per well. Plates were incubated at 4° C. overnight or at room temperature for 3 hours on a shaker. To control for nonspecific phosphorylation, one row of wells was coated with 100 μl/well coating buffer (20 mM HEPES, 0.2 M NaCl). Plates were then washed twice with wash buffer (0.01% Tween 20 in phosphate-buffered saline). Compounds to be tested (“test compounds”) were added to the wells at 5× final concentration. Reactions were initiated by immediate addition of 40 μl reaction mix (25 mM HEPES, 20 mM MgCl2, 0.002% Tween 20, 2 mM DTT, 1 μM ATP, 4 nM ^33P-ATP) and a sufficient amount of enzyme to give counts that were at least 10-fold above background. Plates were incubated at room temperature on a shaker for 30 minutes. Plates were washed four times with the wash buffer, sealed, and counted on the TopCount scintillation counter (Packard Instrument Co., Downers Grove, Ill.]. The percent inhibition of Rb phosphorylation, which is a measure of the inhibition of CDK activity, was determined according to the following formula:
[formula] where “test compound” refers to the average counts per minute of the test duplicates, “nonspecific” refers to the average counts per minute when no CyclinD/Cdk4, etc., was added, and “total” refers to the average counts per minute when no compound was added.

[2] = molecular target: human cyclin E-CDK2 (Homo sapiens, UniProt P24941); assay: FlashPlate kinase assay, cyclin E-CDK2; type: biochemical; details: Rb protein substrate, 1 μM ATP, 33P-ATP, 30 minutes room temperature
Method: (§3) To determine inhibition of Cdk4, Cdk2 and Cdk1 activity, kinase assays were conducted using FlashPlate™ assays (NEN™-Life Science Products). FlashPlate assays were performed using recombinant human cyclin B-CDK1, human cyclin E-CDK2 or human cyclin D1-CDK4 complexes. GST-cyclinE (GST-cycE), CDK2, GST-cyclinB (GST-cycB), CDK1, GST-CDK4 and cyclin D1 (cycD1) cDNA clones in baculovirus vectors were provided by Dr. W. Harper at the Baylor College of Medicine, Houston, Tex. Proteins were co-expressed in High Five™ insect cells and the complex was purified on glutathione Sepharose resin (Pharmacia, Piscataway, N.J.) as previously described (Harper, J. W. et al. Cell 1993, 75, 805–816). A 6×-Histidine tagged truncated form of retinoblastoma (Rb) protein (amino acid 386–928) was used as the substrate for the cycD1-CDK4, cycB-CDK1 and the cycE-CDK2 assays (the expression plasmid was provided by Dr. Veronica Sullivan, Department of Molecular Virology, Roche Research Centre, Welwyn Garden City, United Kingdom). The Rb protein is a natural substrate for phosphorylation by CDK4, CDK2 and CDK1 (see Herwig and Strauss Eur. J. Biochem. Vol. 246 (1997) pp. 581–601 and the references cited therein).
as §1, §2
(§4) [formula] where “test compound” refers to the average counts per minute of the test duplicates, “nonspecific” refers to the average counts per minute when no CyclinD/Cdk4, etc., was added, and “total” refers to the average counts per minute when no compound was added. The IC50 value is the concentration of test compound that reduces by 50% the protein-kinase induced incorporation of the radiolabel under the test conditions described.

[3] = molecular target: human cyclin B-CDK1 (Homo sapiens, UniProt P06493); assay: FlashPlate kinase assay, cyclin B-CDK1; type: biochemical; details: Rb protein substrate, 1 μM ATP, 33P-ATP, 30 minutes room temperature
Chain of human cyclin B-CDK1 (P06493 whole entry): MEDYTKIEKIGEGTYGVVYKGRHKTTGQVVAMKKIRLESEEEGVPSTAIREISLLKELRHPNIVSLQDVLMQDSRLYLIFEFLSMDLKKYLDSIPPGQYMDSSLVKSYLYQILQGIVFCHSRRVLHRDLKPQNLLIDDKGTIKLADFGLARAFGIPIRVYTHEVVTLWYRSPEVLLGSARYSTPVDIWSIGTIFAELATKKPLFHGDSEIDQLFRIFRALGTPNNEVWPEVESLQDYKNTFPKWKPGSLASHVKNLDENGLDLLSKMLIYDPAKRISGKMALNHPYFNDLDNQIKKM
Chain of human cyclin B-CDK1 (P14635 whole entry partner): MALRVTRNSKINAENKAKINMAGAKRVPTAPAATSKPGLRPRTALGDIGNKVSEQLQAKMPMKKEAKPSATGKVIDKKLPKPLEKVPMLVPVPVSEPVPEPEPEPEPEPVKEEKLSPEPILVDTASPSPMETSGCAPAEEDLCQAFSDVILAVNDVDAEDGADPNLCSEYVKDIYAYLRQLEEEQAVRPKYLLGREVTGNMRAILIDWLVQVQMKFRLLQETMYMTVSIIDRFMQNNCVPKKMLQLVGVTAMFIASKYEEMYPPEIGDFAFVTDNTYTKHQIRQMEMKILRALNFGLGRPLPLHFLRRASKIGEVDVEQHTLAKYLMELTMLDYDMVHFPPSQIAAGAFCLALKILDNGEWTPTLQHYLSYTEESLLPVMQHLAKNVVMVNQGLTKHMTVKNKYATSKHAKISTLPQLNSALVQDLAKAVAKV
Method: as §3, §1, §2, §4

[4] = tested on: HCT116, a colorectal carcinoma cell line; assay: Tetrazolium dye (MTT) proliferation assay; type: cell-based; details: Homo sapiens, HCT-116; HCT116 cells, inhibition of cell proliferation
Method: Proliferation was evaluated by the tetrazolium dye assay according to the procedure of Denizot and Lang (Denizot, F. and Lang, R. J Immunol Methods 1986, 89, 271–277). The cell line used was HCT116, a colorectal carcinoma cell line obtained from the American Type Cell Culture Collection (ATCC; Rockville, Md.). The cells were grown in McCoy's 5A medium supplemented with 10% FCS and L-glutamine.
Cells were plated at the appropriate seeding density to give logarithmic growth over the course of the assay in a 96-well tissue culture plate. Plates were incubated overnight at 37° C. in a humidified incubator with 5% CO2. The next day, test compounds were serially diluted to four times the final concentration in the appropriate medium containing 1.2% DMSO. One-fourth final volume of each dilution was added in duplicate to the plates containing cells. The same volume of 1.2% DMSO in medium was added to a row of “control wells” such that the final concentration of DMSO in each well was 0.3%. Wells to which no cells were added served as the “blank.” Wells to which no inhibitor was added served as “no inhibitor control.” The plates were) returned to the incubator, and at set time points (determined by their growth curves) plates were analyzed as described below.
3-(4,5-dimethylthiazole-2-yl)-2,5-diphenyl-2H-tetrazolium bromide (thiazolyl blue; MTT; Sigma) was added to each well to yield a final concentration of 1 mg/ml. Plates were returned to the incubator for 2.5–3 hours at 37° C. The MTT-containing medium was removed and the resulting formazan metabolite was solubilized in 100% ethanol with shaking for 15 minutes at room temperature. Absorbance readings were taken in a microtiter plate reader (Dynatech and Molecular Devices plate readers were used interchangeably) at a wavelength of 570 nm with a 650 nm reference. Percent inhibition (% INH) is calculated by subtracting the absorbance of the blank well from all wells, then subtracting the ratio of the average absorbance of each test duplicate (SAVE) by the average of the controls (CAVE) from 1.00. The final number is then multiplied by 100 (% INH=(1.00−SAVE/CAVE)×100). The concentration at which 50% inhibition of cell proliferation is obtained (the IC50) is determined from the linear regression of a plot of the logarithm of the concentration versus percent inhibition.

Chain of human cyclin D1-CDK4 (P11802 whole entry): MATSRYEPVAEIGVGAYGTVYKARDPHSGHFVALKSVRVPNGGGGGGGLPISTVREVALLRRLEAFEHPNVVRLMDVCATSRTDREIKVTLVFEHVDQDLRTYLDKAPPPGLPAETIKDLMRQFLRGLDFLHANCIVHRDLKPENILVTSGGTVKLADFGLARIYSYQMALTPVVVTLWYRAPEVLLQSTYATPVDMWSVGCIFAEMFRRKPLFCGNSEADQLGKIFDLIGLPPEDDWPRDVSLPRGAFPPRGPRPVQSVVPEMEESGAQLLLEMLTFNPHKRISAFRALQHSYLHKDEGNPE
Chain of human cyclin D1-CDK4 (P24385 whole entry partner): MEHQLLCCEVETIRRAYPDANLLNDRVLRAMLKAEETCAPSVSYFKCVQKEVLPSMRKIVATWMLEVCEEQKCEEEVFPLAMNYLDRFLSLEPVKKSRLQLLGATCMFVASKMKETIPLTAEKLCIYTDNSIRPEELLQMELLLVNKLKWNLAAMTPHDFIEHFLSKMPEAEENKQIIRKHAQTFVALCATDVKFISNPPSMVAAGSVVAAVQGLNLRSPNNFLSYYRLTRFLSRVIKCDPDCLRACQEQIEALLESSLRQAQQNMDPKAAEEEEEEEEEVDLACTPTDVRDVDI

| Structure (SMILES) | pIC50 [1] | pIC50 [2] | pIC50 [3] | pIC50 [4] |
| --- | --- | --- | --- | --- |
| COc1ccc(C(=O)c2sc(Nc3ccc(N4CCC(N5CCCC5)CC4)cc3)nc2N)cc1F [Example 23] | 7.92 | 5.54 | 5.89 | 5.76 |
| Nc1nc(Nc2ccc(N3CCC(N4CCCC4)CC3)cc2)sc1C(=O)c1cccc(F)c1 [Example 24, {4-Amino-2-[4-(4-pyrrolidin-1-yl-piperidin-1-yl)-phenylamino]-thiazol-5-yl}-(3-fluoro-phenyl)-methanone] | 7.49 | 6.07 | 6.57 | 5.91 |
| Nc1nc(Nc2ccc(N3CCC(N4CCCC(O)C4)CC3)cc2)sc1C(=O)c1ccc2c(c1)OCCO2 (stereo not shown) [Example 38, {4-Amino-2-[4-(3-hydroxy-[1,4′]bipiperidinyl-1′-yl)-phenylamino]-thiazol-5-yl}-(2,3-dihydro-benzo[1,4]dioxin-6-yl)-methanone] | 5.28 | – | 5.39 | 7.82 |
| CN(C)C1CCN(c2ccc(Nc3nc(N)c(C(=O)c4ccc(Cl)c([N+](=O)[O-])c4)s3)cc2)CC1 [Example 87, {4-Amino-2-[4-(4-dimethylamino-piperidin-1-yl)-phenylamino]-thiazol-5-yl}-(4-chloro-3-nitro-phenyl)-methanone] | 6.88 | 5.35 | 5.52 | – |
| CN(C)C1CCN(c2ccc(Nc3nc(N)c(C(=O)c4cccc(C#N)c4)s3)cc2)CC1 [Example 88, 3-{4-Amino-2-[4-(4-dimethylamino-piperidin-1-yl)-phenylamino]-thiazole-5-carbonyl}-benzonitrile] | 7.82 | 5.41 | 6.03 | – |
| Nc1nc(Nc2ccc(N3CCC(N4CCCCC4)CC3)cc2)sc1C(=O)c1cccc([N+](=O)[O-])c1 [Example 89, [4-Amino-2-(4-[1,4′]bipiperidinyl-1′-yl-phenylamino)-thiazol-5-yl]-(3-nitro-phenyl)-methanone] | 7.00 | 5.65 | 6.29 | – |
| Nc1nc(Nc2ccc(N3CCC(N4CCCC4)CC3)cc2)sc1C(=O)c1cccc(O)c1 [Example 96, {4-Amino-2-[4-(4-pyrrolidin-1-yl-piperidin-1-yl)-phenylamino]-thiazol-5-yl}-(3-hydroxy-phenyl)-methanone] | 7.43 | 5.39 | 5.93 | – |
| Nc1nc(Nc2ccc(N3CCC(N4CCOCC4)CC3)cc2)sc1C(=O)c1cccc(F)c1 [Example 99, {4-Amino-2-[4-(4-morpholin-4-yl-piperidin-1-yl)-phenylamino]-thiazol-5-yl}-(3-fluoro-phenyl)-methanone] | 7.46 | 6.26 | 6.35 | – |
| COc1cccc(C(=O)c2sc(Nc3ccc(N4CCC(N5CCOCC5)CC4)cc3)nc2N)c1 [Example 102, {4-Amino-2-[4-(4-morpholin-4-yl-piperidin-1-yl)-phenylamino]-thiazol-5-yl}-(3-methoxy-phenyl)-methanone] | 7.54 | 5.32 | 5.70 | – |
| Nc1nc(Nc2ccc(N3CCC(N4CCOCC4)CC3)cc2)sc1C(=O)c1cccc(O)c1 [Example 103, {4-Amino-2-[4-(4-morpholin-4-yl-piperidin-1-yl)-phenylamino]-thiazol-5-yl}-(3-hydroxy-phenyl)-methanone] | 7.44 | 5.48 | 5.82 | – |
| N#Cc1cccc(C(=O)c2sc(Nc3ccc(N4CCC(N5CCOCC5)CC4)cc3)nc2N)c1 [Example 104, 3-{4-Amino-2-[4-(4-morpholin-4-yl-piperidin-1-yl)-phenylamino]-thiazole-5-carbonyl}-benzonitrile] | 7.51 | 5.70 | 5.89 | – |
| Nc1nc(Nc2ccc(N3CCC(N4CCOCC4)CC3)cc2)sc1C(=O)c1cccc([N+](=O)[O-])c1 [Example 105, {4-Amino-2-[4-(4-morpholin-4-yl-piperidin-1-yl)-phenylamino]-thiazol-5-yl}-(3-nitro-phenyl)-methanone] | 7.41 | 5.82 | 5.89 | – |
| COc1ccc(C(=O)c2sc(Nc3ccc(N4CCC(N5CCOCC5)CC4)cc3)nc2N)cc1[N+](=O)[O-] [Example 106, {4-Amino-2-[4-(4-morpholin-4-yl-piperidin-1-yl)-phenylamino]-thiazol-5-yl}-(4-methoxy-3-nitro-phenyl)-methanone] | 7.28 | 5.32 | 5.64 | – |
| Cc1cccc(C(=O)c2sc(Nc3ccc(N4CCC(N(C)C)CC4)cc3)nc2N)c1 [Example 110, {4-Amino-2-[4-(4-dimethylamino-piperidin-1-yl)-phenylamino]-thiazol-5-yl}-tolyl-methanone] | 7.60 | – | 5.70 | 5.57 |
| Cc1cccc(C(=O)c2sc(Nc3ccc(N4CCC(N5CCCCC5)CC4)cc3)nc2N)c1 [Example 111, [4-Amino-2-(4-[1,4′]bipiperidinyl-1′-yl-phenylamino)-thiazol-5-yl]-tolyl-methanone] | 7.60 | – | – | 5.79 |
| CCOC(=O)c1cc2ccc(C(=O)c3sc(Nc4ccc(N5CCC(N6CCCC6)CC5)cc4)nc3N)cc2[nH]1 [Example 124] | 7.17 | 5.36 | 4.94 | – |
| CCNC1CCN(c2ccc(Nc3nc(N)c(C(=O)c4cccc(F)c4)s3)cc2)CC1 [Example 137, {4-Amino-2-[4-(4-ethylamino-piperidin-1-yl)-phenylamino]-thiazol-5-yl}-(3-fluoro-phenyl)-menthanone] | 7.49 | – | 6.41 | 5.85 |
